# In US7029868B2, “Cell fusion assays using fluorescence resonance energy transfer” (Merck & Co., Inc., priority 2000, dated 2006):
# Key:
# [1] = tested on: fusion mediated by CD4, CXCR4, and the HIV-1 Env protein gp143; assay: CHO cell/Jurkat cell fusion assay, β-lactamase/CCF2 FRET readout; assay type: cell-based; conditions: CHO gp143/HXB2 cells with Jurkat β-lactamase cells
# Method: Jurkat cells expressing β-lactamase (and which naturally express CXCR4 and CD4) were added to the CHO cells and incubated at 37° C. for a period sufficient to allow fusion to occur. The non-fused cells were removed by washing and the fluorogenic 1β-lactamase substrate CCF2/AM was added to the remaining cells. After a 1 hour incubation at room temperature, cell fusion was measured by fluorescence on a fluorescence plate reader. The ratio of emission of the donor dye (7-hydroxycoumarin) over emission of the acceptor dye (fluorescein) was measured.
# Fusion is measured by observing the ratio of blue emission (460 nm) to green emission (530 nm). A high ratio indicates more fusion; a low ratio indicates less fusion.
# CHO cells expressing gp143/HXB2 were plated in 96-well black, clear-bottom plates (Costar catalogue number 3603) at 5×10^4 cells per well in 200 μl of medium per well. The medium was Iscove's Modified Dulbecco's Medium (Gibco catalogue number 12440-046) supplemented with: 10% fetal bovine serum, G418 (1 mg/ml), 1 mg/ml penicillin/streptomycin (Gibco catalogue number 15140-122), glutamine (2 mM), and HT (ATCC 71-X).
# The cells were incubated overnight at 37° C. […]
# The plates were read on a Cytofluor II fluorescence plate reader (PerSeptive Biosystems) at 2 scans/cycle. […]
# HIV-1 [2] = conditions: certain cultured cells; Cocchi et al., 1995; cited from earlier work
# HIV-1 [3] = conditions: SCID-hu mice; Datema et al., 1996; cited from earlier work
compound,measurement,setting,value
SDF-1: the natural ligand for CXCR4 (PeproTech Inc.); a chemokine,inhibition of fusion (in words),[1],dose-dependent inhibition of fusion
RANTES,suppression of HIV-1 replication,HIV-1 [2],able to suppress HIV-1 replication
c1cc(CN2CCCNCCNCCCNCC2)ccc1CN1CCCNCCNCCCNCC1 [AMD3100],inhibition of HIV-1 replication,HIV-1 [3],inhibits HIV-1 replication
